{
  "source": "paper PMC11490992",
  "about": "(Microbial Cell Factories, 2024)",
  "molecular_target": "α-glucosidase",
  "assay": "in vitro α-glucosidase inhibition assay, triplicate, serial dilutions",
  "format": "biochemical",
  "data": [
    {"molecule": "CC(C)=CCc1ccc2c(CC#N)c[nH]c2c1", "note": "[compound 2, 3-cyanomethyl-6-prenylindole]", "values": [
      {"measurement": "IC50 (μg/mL)^a", "result": 86.21, "unit": "µg/mL"}
    ]}
  ]
}
